In one test the target is T1, full-length human Mineralocorticoid Receptor (MR) (Homo sapiens, UniProt P08235).
T1 construct: full-length human Mineralocorticoid Receptor (MR); host or cells: PathHunter CHO-K1 cells
T1 sequence (P08235 1-984): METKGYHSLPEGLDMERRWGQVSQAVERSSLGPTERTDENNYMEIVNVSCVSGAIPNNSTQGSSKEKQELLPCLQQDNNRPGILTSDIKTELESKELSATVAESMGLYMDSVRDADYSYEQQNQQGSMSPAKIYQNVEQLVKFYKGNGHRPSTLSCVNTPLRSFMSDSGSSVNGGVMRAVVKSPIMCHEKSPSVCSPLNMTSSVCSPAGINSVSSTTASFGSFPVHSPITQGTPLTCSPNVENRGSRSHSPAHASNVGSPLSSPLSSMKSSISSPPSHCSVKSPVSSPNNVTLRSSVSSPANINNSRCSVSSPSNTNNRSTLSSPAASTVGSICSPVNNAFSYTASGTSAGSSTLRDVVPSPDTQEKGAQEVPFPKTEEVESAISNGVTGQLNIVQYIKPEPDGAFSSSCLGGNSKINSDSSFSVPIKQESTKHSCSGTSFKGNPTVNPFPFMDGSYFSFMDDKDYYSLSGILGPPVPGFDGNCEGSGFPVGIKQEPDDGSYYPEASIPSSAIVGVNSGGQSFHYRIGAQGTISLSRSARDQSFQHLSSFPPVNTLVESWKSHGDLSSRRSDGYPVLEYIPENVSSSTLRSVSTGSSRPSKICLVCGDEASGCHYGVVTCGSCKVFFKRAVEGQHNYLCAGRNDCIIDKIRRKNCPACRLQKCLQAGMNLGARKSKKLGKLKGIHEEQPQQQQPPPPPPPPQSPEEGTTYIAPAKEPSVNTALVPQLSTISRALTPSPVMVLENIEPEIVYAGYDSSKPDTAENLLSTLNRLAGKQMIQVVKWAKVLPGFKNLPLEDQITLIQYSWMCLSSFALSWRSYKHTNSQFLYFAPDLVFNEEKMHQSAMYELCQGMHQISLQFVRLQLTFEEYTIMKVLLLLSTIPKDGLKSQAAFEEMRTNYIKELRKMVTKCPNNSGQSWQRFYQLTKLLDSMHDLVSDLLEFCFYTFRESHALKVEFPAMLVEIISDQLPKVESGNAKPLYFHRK
The test is described as follows: human MR NH Pro assay (PathHunter Protein:Protein interaction assay, MR antagonism). It counts as cell-based. The note with it: PathHunter CHO-K1 cells that overexpress human MR; aldosterone (0.3 nM), 6 hours at 37° C.; antagonist mode; read-out: IC50 rating. On the procedure: The activity of the compounds of the present invention regarding mineralocorticoid receptor antagonism was evaluated using the following assay.
Assessment of Mr Potency in HMR NH Pro Assay
The human MR NH Pro assay is a commercially available PathHunter™ Protein:Protein interaction assay (DiscoveRx; http://www.discoverx.com/nhrs/prod-nhrs.php) that measures the ability of compounds to antagonize full-length human Mineralocorticoid Receptor (MR) binding to a coactivator peptide. PathHunter™ CHO—K1 cells that overexpress human MR (Cat #93-0456C2, Lot No: 09B0913) were cultured in growth media (F12K w/Glutamine and phenol red (Gibco 11765-047) supplemented with 10% HI FBS (Gibco 16000); 0.25 mg/ml Hygromycin in PBS (Invitrogen 10687-010, 50 mg/ml); 100 I.U./mL and 100 μg/mL Pen/Strep (Gibco 15140-122); 0.6 mg/mL Geneticin).
Compounds were assessed for MR antagonist activity by incubating the cells with a titrating dose of compound in F12K w/Glutamine and phenol red culture media (Invitrogen 11765-047) supplemented with 1% Charcoal/Dextran Treated FBS (Hyclone #SH30068.01) and aldosterone (0.3 nM) for 6 hours at 37° C. […] Growth Media: • F12K w/Glutamine and phenol red (Gibco 11765-047) • 10% HI FBS (Gibco 16000) • 0.25 mg/ml Hygromycin in PBS (Invitrogen 10687-010, 50 mg/ml) • 100 I.U./mL and 100 μg/mL Pen/Strep (Gibco 15140-122) • 0.6 mg/mL Geneticin (Gibco 10131, 50 mg/ml) • 2. Assay Media: • F12K w/Glutamine and phenol red (Invitrogen 11765-047) • 1% Charcoal/Dextran Treated FBS (Hyclone #SH30068.01) • 3. 3× PathHunter Detection Reagents (Cat#93-0001) (need ˜6 ml/plate). […] Control Agonist:Aldosterone:Sigma cat# A9477 • Prepare stock solution-10 μM in DMSO kept at −20° C. • for assay, dilute in assay media to 1.8 or 6 nM (6× of final concentration=about 0.3 nM to about 1.0 nM) • 5. Cell line: PathHunter CHO—K1 MR cells Cat #93-0456C2, Lot No: 09B0913, from operation liquid nitrogen stock. • 6. Control Antagonist:Spironolactone:Sigma #S-3378 and Eplerenone Sigma #107724-20-9 (10 mM stock concentration also prepared in DMSO and stored at −20° C.). • Methods: • Assay Set up and Calculations: • 1. Cells were grown in F12+FBS+Hygromycin+pen/strep+Genetin • 2. Cells were collected with 0.05% trypsin and the cell suspension was spun and resuspended in a volume of F12+1.5% CD-FBS and counted. • 3. The cells were resuspended to 4×10^5 cells/mL. • 4. Cells were (25 μL/well) added to the wells of a 384 well plate. • 5. The plate was then incubated at 37° C. over night in a humidified incubator with 5% CO2. • 6. Test compounds were titrated starting at 4.4 mM, 10-point titration in 1:3 dilution. • 7. Aldosterone was diluted in assay media to 1.8 nM or 6 nM from 10 μM stock (final concentration to be about 0.3 nM to about 1.0 nM). • Protocol for 384 Well Plate Format: 6 Hr Treatment: • 1. Plated 10K exponentially growing cells/well (25 μL) resuspended in assay media to each well using the Multidrop (Thermo Electron) (use white wall, clear bottom assay plates (Costar #3570) and incubate overnight at 37° C., 5% CO2. • 2. 0.25 μL 120× test compound (final DMSO concentration should be <1%) was added to each well n=2, 10 point titrations starting at 36.7 μM final concentration. • 3. 5 μL 6× agonist (final aldosterone concentration should be about 0.3 nM to about 1.0 nM) was added to all wells using the PlateMate Plus.
(ThermoFisher) (except those wells in columns 23 and 24) • 4. 5 μL of assay media was added to all wells in column 23 and 24. • 5. Plates were incubated 6 hrs at 37° C., 5% CO2. • 6. 15 μL 3× DiscoveRx detection reagent was added to each well. • 7. Plates were incubated for 1 hour at room temperature (plates stored in the dark). • 8. Plates were read on Envision (PerkinElmer) luminesence plate reader and analyzed using ADA.
The IC50 is the concentration that gives 50% inhibition. On to `C[C@H](c1ccc(F)cc1)N1C(=O)O[C@](Cc2ccccc2)(c2nc3cc(-c4cncnc4)ccc3[nH]2)C1=O` [Compound 22, (5R)-5-Benzyl-3-[(1R)-1-(4-fluorophenyl)ethyl]-5-(5-pyrimidin-5-yl-1H-benzimidazol-2-yl)-1,3-oxazolidine-2,4-dione], for which the IC50 is under 100 nM.

As to `CCS(=O)(=O)Nc1ccc2nc([C@@]3(Cc4ccccc4)OC(=O)N([C@H](C)c4ccc(F)cc4)C3=O)[nH]c2c1` [Compound 16, N-(2-{(5R)-5-Benzyl-3-[(1R)-1-(4-fluorophenyl)ethyl]-2,4-dioxo-1,3-oxazolidin-5-yl}-1H-benzimidazol-6-yl)ethanesulfonamide], the IC50 lay in the range of 100 to 500 nM. Same read-out and setting: for `C[C@H](c1ccc(F)cc1)N1C(=O)O[C@](Cc2ccccc2)(c2nc3c(Cl)cccc3[nH]2)C1=O` [Compound 20, 5-Benzyl-5-(4-chloro-1H-benzimidazol-2-yl)-3-[(1R)-1-(4-fluorophenyl)ethyl]-1,3-oxazolidine-2,4-dione] the value was 100 to 500 nM; for `C[C@H](c1ccc(F)cc1)N1C(=O)O[C@](Cc2ccccc2)(c2nc3cc(-n4cnnn4)ccc3[nH]2)C1=O` [Compound 6, (5R)-5-Benzyl-3-[(1R)-1-(4-fluorophenyl)ethyl]-5-[6-(1H-tetrazol-1-yl)-1H-benzimidazol-2-yl]-1,3-oxazolidine-2,4-dione], 100 to 500 nM; for `COC(=O)c1ccc2nc([C@@]3(Cc4ccccc4)OC(=O)N([C@H](C)c4ccc(F)cc4)C3=O)[nH]c2c1` [Compound 5, Methyl 2-{(5R)-5-benzyl-3-[(1R)-1-(4-fluorophenyl)ethyl]-2,4-dioxo-1,3-oxazolidin-5-yl}-1H-benzimidazole-5-carboxylate], 100 to 500 nM.

On to `COc1ncccc1-c1cccc2[nH]c([C@@]3(Cc4ccccc4)OC(=O)N([C@H](C)c4ccc(F)cc4)C3=O)nc12` [Compound 33, (5R)-5-Benzyl-3-[(1R)-1-(4-fluorophenyl)ethyl]-5-[4-(2-methoxypyridin-3-yl)-1H-benzimidazol-2-yl]-1,3-oxazolidine-2,4-dione], for which the half-maximal inhibitory concentration (IC50) is under 100 nM.

On to `C[C@H](c1ccc(F)cc1)N1C(=O)O[C@](Cc2ccccc2)(c2nc3c(-c4cnn(C)c4)cccc3[nH]2)C1=O` [Compound 31, (5R)-5-Benzyl-3-[(1R)-1-(4-fluorophenyl)ethyl]-5-[4-(1-methyl-1H-pyrazol-4-yl)-1H-benzimidazol-2-yl]-1,3-oxazolidine-2,4-dione], for which the IC50 was 100 to 500 nM.

As to `C[C@H](c1ccc(F)cc1)N1C(=O)O[C@](Cc2ccccc2)(c2nc3cc(C(F)(F)F)ccc3[nH]2)C1=O` [Compound 8, (5R)-5-Benzyl-3-[(1R)-1-(4-fluorophenyl)ethyl]-5-[5-(trifluoromethyl)-1H-benzimidazol-2-yl]-1,3-oxazolidine-2,4-dione], the IC50 is under 100 nM.

Regarding `C[C@H](c1ccc(F)cc1)N1C(=O)O[C@](Cc2ccccc2)(c2nc3c(-c4ccncc4)cccc3[nH]2)C1=O` [Compound 34, (5R)-5-Benzyl-3-[(1R)-1-(4-fluorophenyl)ethyl]-5-(4-pyridin-4-yl-1H-benzimidazol-2-yl)-1,3-oxazolidine-2,4-dione], the IC50 lay in the range of 100 to 500 nM. On the same count and under the same terms, next, `C[C@H](c1ccccc1)N1C(=O)N[C@](Cc2ccccc2)(c2nc3ccc(Cl)cc3[nH]2)C1=O` (single isomer, unassigned) [Compound 38]: 500 to 2000 nM.

For `C[C@H](c1ccc(F)cc1)N1C(=O)O[C@](Cc2ccccc2)(c2nc3ccccc3[nH]2)C1=O` [Compound 3, (5R)-5-(1H-Benzimidazol-2-yl)-5-benzyl-3-[(1R)-1-(4-fluorophenyl)ethyl]-1,3-oxazolidine-2,4-dione], the IC50 was in the range of 100 to 500 nM.

With `C[C@H](c1ccc(F)cc1)N1C(=O)O[C@](Cc2ccccc2)(c2nc3cc(-c4cc[nH]n4)ccc3[nH]2)C1=O` [Compound 27, (5R)-5-Benzyl-3-[(1R)-1-(4-fluorophenyl)ethyl]-5-[5-(1H-pyrazol-5-yl)-1H-benzimidazol-2-yl]-1,3-oxazolidine-2,4-dione], the IC50 lay in the range of 100 to 500 nM. Turning to `C[C@H](c1ccc(F)cc1)N1C(=O)O[C@](Cc2ccccc2)(c2nc3cc(Cl)ccc3[nH]2)C1=O` [Compound 1, (5R)-5-Benzyl-5-(5-chloro-1H-benzimidazol-2-yl)-3-[(1R)-1-(4-fluorophenyl)ethyl]-1,3-oxazolidine-2,4-dione], the half-maximal inhibitory concentration (IC50) lay in the range of 100 to 500 nM.

Staying with this test, now noted: Table 3; PathHunter CHO-K1 cells that overexpress human MR; aldosterone (0.3 nM), 6 hours at 37° C.; antagonist mode; read-out: IC50.
Turning to `CCCCC[C@@H](C)N1C(=O)O[C@](Cc2ccccc2)(c2nc3cc(NS(C)(=O)=O)ccc3[nH]2)C1=O` [Example 40, N-(2-((R)-5-benzyl-3-((R)-heptan-2-yl)-2,4-dioxooxazolidin-5-yl)-1H-benzo[d]imidazol-5-yl)methanesulfonamide], the IC50 lay within 500 to 2000 nM. The same measure, in the same setting: next, `CCCCCC[C@@H](C)N1C(=O)O[C@](Cc2ccccc2)(c2nc3cc(NS(C)(=O)=O)ccc3[nH]2)C1=O` [Example 42, N-(2-((R)-5-benzyl-3-((R)-octan-2-yl)-2,4-dioxooxazolidin-5-yl)-1H-benzo[d]imidazol-5-yl)methanesulfonamide]: 500 to 2000 nM. Same read-out and setting: for `CCCCCC[C@@H](C)N1C(=O)O[C@](Cc2ccc(F)cc2)(c2nc3cc(NS(C)(=O)=O)ccc3[nH]2)C1=O` [Example 41, N-(2-((R)-5-(4-fluorobenzyl)-3-((R)-octan-2-yl)-2,4-dioxooxazolidin-5-yl)-1H-benzo[d]imidazol-5-yl)methanesulfonamide] the value was 500 to 2000 nM.

The values are drawn from US9193717B2, “Mineralocorticoid receptor antagonists” (Merck Sharp & Dohme Corp., priority 2011, dated 2015).
